Assay results from ChEMBL document CHEMBL6134798, “Classifying covalent protein binders by their targeted binding site” (Bioorg Med Chem Lett, 2025).
Each block holds one compound with its values, some of them ahead of it.

What was measured:
Secernin-3 = biological target: T1, Secernin-3 (Homo sapiens, UniProt Q0VDG4); test: Inhibition of full length human SCRN3 transfected in HEK293T cells; format: cell-based
T1 sequence (Q0VDG4 whole entry): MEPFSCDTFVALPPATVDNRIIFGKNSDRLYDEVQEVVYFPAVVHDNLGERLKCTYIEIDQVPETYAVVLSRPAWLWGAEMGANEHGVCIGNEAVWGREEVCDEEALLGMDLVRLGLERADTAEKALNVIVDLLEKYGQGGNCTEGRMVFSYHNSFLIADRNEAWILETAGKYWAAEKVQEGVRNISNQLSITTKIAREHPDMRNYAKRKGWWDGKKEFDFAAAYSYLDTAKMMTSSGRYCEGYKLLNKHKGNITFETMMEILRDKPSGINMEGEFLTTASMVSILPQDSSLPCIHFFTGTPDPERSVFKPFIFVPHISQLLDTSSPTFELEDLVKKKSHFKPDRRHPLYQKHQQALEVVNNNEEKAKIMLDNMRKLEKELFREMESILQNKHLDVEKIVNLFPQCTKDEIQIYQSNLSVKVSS

K562 = test: Growth inhibition of human K562 cells; format: functional
[1] = biological target: Epidermal growth factor receptor (Homo sapiens, UniProt P00533); test: Inhibition of EGFR (unknown origin)
Sequence of Epidermal growth factor receptor (P00533 whole entry): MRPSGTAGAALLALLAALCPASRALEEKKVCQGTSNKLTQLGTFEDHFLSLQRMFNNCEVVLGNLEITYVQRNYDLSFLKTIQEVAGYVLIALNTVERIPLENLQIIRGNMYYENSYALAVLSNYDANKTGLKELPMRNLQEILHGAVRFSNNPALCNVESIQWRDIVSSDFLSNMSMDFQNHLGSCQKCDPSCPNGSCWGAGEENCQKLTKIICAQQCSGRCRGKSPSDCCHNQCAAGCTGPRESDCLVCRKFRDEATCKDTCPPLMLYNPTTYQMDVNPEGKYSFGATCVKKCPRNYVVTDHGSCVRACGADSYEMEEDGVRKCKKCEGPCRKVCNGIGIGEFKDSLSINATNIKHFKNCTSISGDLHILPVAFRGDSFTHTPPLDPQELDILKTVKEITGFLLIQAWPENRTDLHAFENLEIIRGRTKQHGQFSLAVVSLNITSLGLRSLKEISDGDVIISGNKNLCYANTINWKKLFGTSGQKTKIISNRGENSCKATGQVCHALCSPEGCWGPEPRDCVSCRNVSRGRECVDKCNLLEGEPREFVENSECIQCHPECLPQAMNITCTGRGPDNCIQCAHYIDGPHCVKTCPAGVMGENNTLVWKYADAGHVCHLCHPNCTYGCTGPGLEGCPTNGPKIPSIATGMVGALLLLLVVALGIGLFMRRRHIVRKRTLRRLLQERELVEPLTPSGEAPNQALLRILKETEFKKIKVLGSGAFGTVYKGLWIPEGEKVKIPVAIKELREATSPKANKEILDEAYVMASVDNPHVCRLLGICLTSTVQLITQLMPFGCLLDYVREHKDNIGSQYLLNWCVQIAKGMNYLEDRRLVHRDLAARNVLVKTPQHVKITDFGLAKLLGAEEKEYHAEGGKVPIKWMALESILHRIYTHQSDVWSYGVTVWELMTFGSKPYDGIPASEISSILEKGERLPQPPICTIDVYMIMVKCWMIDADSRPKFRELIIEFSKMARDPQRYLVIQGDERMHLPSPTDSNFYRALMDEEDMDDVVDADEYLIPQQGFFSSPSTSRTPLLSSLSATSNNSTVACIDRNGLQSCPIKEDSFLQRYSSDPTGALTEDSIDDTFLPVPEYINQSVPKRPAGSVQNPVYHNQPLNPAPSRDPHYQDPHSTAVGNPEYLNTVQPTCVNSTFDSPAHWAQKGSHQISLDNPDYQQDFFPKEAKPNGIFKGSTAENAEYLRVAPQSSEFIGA

SMILES: NNc1ccc2ccccc2c1
- IC50 (Secernin-3): 200 nM

- GI50 (K562): 55.6 nM
SMILES: COc1cc(O)c(C=O)cc1-c1c[nH]c2ncc(-c3cncc(C(=O)N(C)C)c3)cc12

- IC50 [1]: 120 nM
SMILES: C=CC(=O)N1CCN(c2ncnc3c(F)c(-c4c(O)cccc4F)c(Cl)cc23)CC1
